# According to patent US7563796B2, “Diphenylimidazopyrimidines as inhibitors of β-secretase” (Wyeth, priority 2005, dated 2009):
# Where a name gives a salt, the structure may show the parent alone.
# Tests used:
# [1] = molecular target: human BACE1 (Homo sapiens, UniProt P56817); assay: Fluorescent kinetic assay, BACE1 inhibition (substrate WABC-6 cleavage); type: biochemical; conditions: for IC50: 10 nM enzyme, 25 μM substrate WABC-6, pH 4.5, room temperature; for inhibition at 25 µM: read-out: BACE1 % inhibition at 25 μM, at 25 μM inhibitor
# human BACE1, sequence (P56817 46-501): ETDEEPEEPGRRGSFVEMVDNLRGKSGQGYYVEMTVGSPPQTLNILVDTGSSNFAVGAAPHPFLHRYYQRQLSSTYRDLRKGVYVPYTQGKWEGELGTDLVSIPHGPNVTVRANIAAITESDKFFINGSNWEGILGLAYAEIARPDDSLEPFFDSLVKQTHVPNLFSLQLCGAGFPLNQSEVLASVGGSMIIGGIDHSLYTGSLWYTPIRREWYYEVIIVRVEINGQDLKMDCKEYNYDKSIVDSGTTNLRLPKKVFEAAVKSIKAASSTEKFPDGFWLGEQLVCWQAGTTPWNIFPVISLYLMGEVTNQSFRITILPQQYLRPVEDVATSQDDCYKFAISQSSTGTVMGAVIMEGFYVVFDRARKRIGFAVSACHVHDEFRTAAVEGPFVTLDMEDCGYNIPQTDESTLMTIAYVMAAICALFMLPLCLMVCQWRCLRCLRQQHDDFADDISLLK
# Protocol: Evaluation of BACE-1 Binding Affinity of Test Compounds
# 1. Fluorescent Kinetic Assays
# Dilution and mixing steps: total reaction volume: 100 μL
# 100 μM substrate dilution in 1X PBS was prepared, and
# Fluorescence Readings: Readings at λex 320 nm and λem 420 nm are taken every 40 sec for 30 min at room temperature and the linear slope for substrate cleavage rate (vi) determined.
SMILES,melting point [°C],IC50 [1] [µM],also measured
"COc1cccc(C2(c3ccccc3)N=C(N)N3CCCN=C32)c1 (stereo not shown) [Example 7, 8-(3-Methoxyphenyl)-8-phenyl-2,3,4,8-tetrahydroimidazo[1,5-a]pyrimidin-6-amine]",–,–,inhibition at 25 µM [1]: 49%
"NC1=NC(c2ccccc2)(c2cccc(Cc3ccccc3)c2)C2=NCCCN12 (stereo not shown) [Example 2, 8-(3-Benzylphenyl)-8-phenyl-2,3,4,8-tetrahydroimidazol[1,5-a]pyrimidin-6-amine]",80,5.3,–
"CCC(=O)Nc1cccc(C2(c3ccc(OC(F)(F)F)cc3)N=C(N)N3CCCN=C32)c1 (stereo not shown) [Example 16, N-{3-[6-Amino-8-(4-trifluoromethoxy-phenyl)-2,3,4,8-tetrahydroimidazo[1,5-a]pyrimidin-8-yl]-phenyl}-propionamide hydrochloride]",–,–,"inhibition at […] ([1]; read-out: BACE1 % inhibition at […], at 2.5 μM inhibitor): 43%"
"CC(C)(C)c1ccc(C2(c3ccccc3)N=C(N)N3CCCN=C32)cc1 (stereo not shown) [Example 1, 8-(4-tert-Butylphenyl)-8-phenyl-2,3,4,8-tetrahydroimidazol[1,5-a]pyrimidin-6-amine]",139,30,–
"NC1=NC(c2ccccc2)(c2cccc(C(F)(F)F)c2)C2=NCCCN12 (stereo not shown) [Example 6, 8-Phenyl-8-[3-(trifluoromethyl)phenyl]-2,3,4,8-tetrahydroimidazo[1,5-a]pyrimidin-6-amine]",–,–,inhibition at 25 µM [1]: 48%
"CCCOc1cccc(C2(c3ccc(OC)c(C)c3)N=C(N)N3CCCN=C32)c1 (stereo not shown) [Example 9, 8-(4-Methoxy-3-methylphenyl)-8-(3-propoxyphenyl)-2,3,4,8-tetrahydroimidazo[1,5-a]pyrimidin-6-amine]",–,0.3,–
"C=CCc1cccc(C2(c3ccc(OC(F)(F)F)cc3)N=C(N)N3CCCN=C32)c1 (stereo not shown) [Example 13, 8-(3-Allylphenyl)-8-(4-trifluoromethoxyphenyl)-2,3,4,8-tetrahydro-imidazo[1,5-a]pyrimidin-6-ylamine]",89 to 111,–,"inhibition at 5 µM ([1]; read-out: BACE1 % inhibition at 5 μM, at 5 μM inhibitor): 53%"

# The next lines start with results.
melting point [°C],IC50 [1] [µM],SMILES,also measured
65 to 77,0.21,"NC1=NC(c2ccc(OC(F)(F)F)cc2)(c2cccc(CCC3CC3)c2)C2=NCCCN12 (stereo not shown) [Example 12, 8-[3-(2-Cyclopropyl-ethyl)-phenyl]-8-(4-trifluoromethoxy-phenyl)-2,3,4,8-tetrahydro-imidazo[1,5-a]pyrimidin-6-ylamine]",–
148 to 150,–,"CCC(=O)Nc1cccc(C2(c3ccc(OC(F)(F)F)cc3)N=C(N)N3CCCN=C32)c1 (stereo not shown) (as salt: hydrochloride) [Example 16, N-{3-[6-Amino-8-(4-trifluoromethoxy-phenyl)-2,3,4,8-tetrahydroimidazo[1,5-a]pyrimidin-8-yl]-phenyl}-propionamide hydrochloride]",–
75 to 79,1.43,"CCCc1cccc(C2(c3ccc(OC(F)(F)F)cc3)N=C(N)N3CCCN=C32)c1 (stereo not shown) [Example 14, 8-(3-Propyl-phenyl)-8-(4-trifluoromethoxy-phenyl)-2,3,4,8-tetrahydro-imidazo[1,5-a]pyrimidin-6-ylamine]",–
–,0.4,"CCCOc1cccc(C2(c3ccc(OC)c(C)c3)N=C(N)N3CCN=C32)c1 (stereo not shown) [Example 8, 7-(4-Methoxy-3-methylphenyl)-7-(3-propoxyphenyl)-2,7-dihydro-3H-imidazo[1.5-a]imidazol-5-amine]",–
129 to 136,–,"CCNC(=O)c1cccc(C2(c3ccc(OC(F)(F)F)cc3)N=C(N)N3CCCN=C32)c1 (stereo not shown) [Example 15, 3-[6-Amino-8-(4-trifluoromethoxy-phenyl)-2,3,4,8-tetrahydroimidazo[1,5-a]pyrimidin-8-yl]-N-ethyl-benzamide]","inhibition at 0.5 µM ([1]; read-out: BACE1 % inhibition at 0.5 μM, at 0.5 μM inhibitor): 40%"
–,1.1,"CCCOc1cccc(C2(c3ccc(OC)c(C)c3)N=C(N)N3CC(C)(C)CN=C32)c1 (stereo not shown) [Example 10, 8-(4-Methoxy-3-methylphenyl)-3,3-dimethyl-8-(3-propoxyphenyl)-2,3,4,8-tetrahydroimidazo[1,5-a]pyrimidin-6-amine]",–
152,8.2,"NC1=NC(c2ccccc2)(c2cccc(Cc3ccc(F)cc3)c2)C2=NCCCN12 (stereo not shown) [Example 5, 8-[3-(4-Fluorobenzyl)phenyl]-8-phenyl-2,3,4,8-tetrahydroimidazo[1,5-a]pyrimidin-6-amine]",–
165,4.7,"NC1=NC(c2ccccc2)(c2cccc(Oc3ccc(F)cc3)c2)C2=NCCCN12 (stereo not shown) [Example 3, 8-[3-(4-Fluorophenoxy)phenyl]-8-phenyl-2,3,4,8-tetrahydroimidazo[1,5-a]pyrimidin-6-amine]",–
132,7.1,"COc1ccc(Cc2cccc(C3(c4ccccc4)N=C(N)N4CCCN=C43)c2)cc1 (stereo not shown) [Example 4, 8-[3-(4-Methoxybenzyl)phenyl]-8-phenyl-2,3,4,8-tetrahydroimidazo[1,5-a]pyrimidin-6-amine]",–
